US10202370B2, “Benzimidazole derivatives as selective proteine kinase inhibitors” (AB SCIENCE, priority 2013, dated 2019)

Biological target: c-kit WT (Homo sapiens (Human), UniProt P10721)
Assay: Proliferation assay (CellTiter-Blue) on BaF3 Kit WT cell line
Format: cell-based
Settings: BaF3 Kit WT cell line (murine Ba/F3 expressing Human Kit WT, with murine SCF), 48 hours
Outline: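 Ba/F3 cells expressing human Kit WT, maintained in RPMI/10% FCS with 250 ng/ml murine SCF, were seeded at 2.10^4 cells/well and exposed to ½ serial dilutions (0–10 μM) for 48 h at 37° C. Viability was measured by CellTiter-Blue fluorescence (544Ex/590Em, 4 h) in triplicate as % of untreated proliferation.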

Chain of c-kit WT (P10721 26-976): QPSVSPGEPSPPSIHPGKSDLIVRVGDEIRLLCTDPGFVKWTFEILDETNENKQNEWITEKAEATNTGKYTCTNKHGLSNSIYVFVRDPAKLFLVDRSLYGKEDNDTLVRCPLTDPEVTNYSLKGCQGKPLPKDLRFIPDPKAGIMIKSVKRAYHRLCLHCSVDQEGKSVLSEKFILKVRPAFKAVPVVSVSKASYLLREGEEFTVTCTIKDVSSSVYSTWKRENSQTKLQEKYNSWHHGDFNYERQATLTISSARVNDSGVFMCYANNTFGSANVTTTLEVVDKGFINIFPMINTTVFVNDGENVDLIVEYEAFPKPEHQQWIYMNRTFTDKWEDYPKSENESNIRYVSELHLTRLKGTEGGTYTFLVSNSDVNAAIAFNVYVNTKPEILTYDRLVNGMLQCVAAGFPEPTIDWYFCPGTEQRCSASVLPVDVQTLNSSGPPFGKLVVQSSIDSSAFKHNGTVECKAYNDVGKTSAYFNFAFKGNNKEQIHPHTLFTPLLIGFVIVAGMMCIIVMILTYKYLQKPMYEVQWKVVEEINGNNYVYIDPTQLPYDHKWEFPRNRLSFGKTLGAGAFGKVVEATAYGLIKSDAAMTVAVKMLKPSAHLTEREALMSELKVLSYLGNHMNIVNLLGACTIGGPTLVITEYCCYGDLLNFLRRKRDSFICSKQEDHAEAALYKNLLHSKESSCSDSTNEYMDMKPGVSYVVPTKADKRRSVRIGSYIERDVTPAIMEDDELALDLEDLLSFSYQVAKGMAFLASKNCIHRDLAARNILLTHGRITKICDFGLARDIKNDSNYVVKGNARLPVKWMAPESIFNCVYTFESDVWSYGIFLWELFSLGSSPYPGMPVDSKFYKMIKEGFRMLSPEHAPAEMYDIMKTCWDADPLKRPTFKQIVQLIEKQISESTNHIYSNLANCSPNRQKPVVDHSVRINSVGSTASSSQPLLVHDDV

SMILES	IC50
Cc1cc2nc(-c3cc(CN4CCOCC4)cc(C(F)(F)F)c3)[nH]c2cc1Nc1nc(-c2cccnc2)cs1 [Compound 020, [6-Methyl-2-(3-morpholin-4-ylmethyl-5-trifluoromethyl-phenyl)-3H-benzoimidazol-5-yl]-(4-pyridin-3-yl-thiazol-2-yl)-amine]	≤ 1000 nM
Cc1cc2nc(-c3cccc(CN4CCN(C)CC4)c3)[nH]c2cc1Nc1nc(-c2cccnc2)cs1 [Compound 044, {6-Methyl-2-[3-(4-methyl-piperazin-1-ylmethyl)-phenyl]-1H-benzoimidazol-5-yl}-(4-pyridin-3-yl-thiazol-2-yl)-amine]	1000 to 10000 nM
Cc1cc2nc(-c3cc(CN4CCN(C)CC4)cc(C(F)(F)F)c3)[nH]c2cc1Nc1nccc(-c2cccnc2)n1 [Compound 040, {6-Methyl-2-[3-(4-methyl-piperazin-1-ylmethyl)-5-trifluoromethyl-phenyl]-3H-benzoimidazol-5-yl}-(4-pyridin-3-yl-pyrimidin-2-yl)-amine]	1000 to 10000 nM
Cc1cc2nc(-c3cccc(C(F)F)c3)[nH]c2cc1Nc1nc(-c2ccc(C(N)=O)cc2)cs1 [Compound 071, 4-{2-[2-(3-Difluoromethyl-phenyl)-6-methyl-3H-benzoimidazol-5-ylamino]-thiazol-4-yl}-benzamide]	≤ 1000 nM
Cc1cc2nc(-c3cccc(C(F)(F)F)c3)[nH]c2cc1Nc1ncc(-c2ccncc2)o1 [Compound 053, [6-Methyl-2-(3-trifluoromethyl-phenyl)-3H-benzoimidazol-5-yl]-(5-pyridin-4-yl-oxazol-2-yl)-amine]	1000 to 10000 nM
Cc1cc2nc(-c3cccc(C(F)(F)F)c3)[nH]c2cc1Nc1nccc(-c2cccnc2)n1 [Compound 008]	≤ 1000 nM
Cc1ccc(-c2nc3cc(C)c(Nc4nc(-c5cccnc5)cs4)cc3[nH]2)cc1 [Compound 004, (6-Methyl-2-p-tolyl-3H-benzoimidazol-5-yl)-(4-pyridin-3-yl-thiazol-2-yl)-amine]	1000 to 10000 nM
Cc1cc2c(cc1Nc1nc(-c3ccncc3)cs1)nc(-c1cccc(OC(F)(F)F)c1)n2C [Compound 083, [1,6-Dimethyl-2-(3-trifluoromethoxy-phenyl)-1H-benzoimidazol-5-yl]-(4-pyridin-4-yl-thiazol-2-yl)-amine]	≤ 1000 nM
Cc1cc2nc(-c3cccc(Cl)c3)[nH]c2cc1Nc1nccc(-c2cccnc2)n1 [Compound 031, [2-(3-Chloro-phenyl)-6-methyl-3H-benzoimidazol-5-yl]-(4-pyridin-3-yl-pyrimidin-2-yl)-amine]	≤ 1000 nM
Cc1cc2nc(-c3ccc(Cl)cc3)[nH]c2cc1Nc1nc(-c2cccnc2)cs1 [Compound 059, [2-(4-Chloro-phenyl)-6-methyl-1H-benzoimidazol-5-yl]-(4-pyridin-3-yl-thiazol-2-yl)-amine]	1000 to 10000 nM
Cc1cc2nc(-c3cccc(C(F)(F)F)c3)[nH]c2cc1Nc1nc(-c2cccnc2)cs1 [Compound 005, [6-Methyl-2-(3-trifluoromethyl-phenyl)-3H-benzoimidazol-5-yl]-(4-pyridin-3-yl-thiazol-2-yl)-amine]	≤ 1000 nM
Cc1cc2nc(-c3cccc(C(F)(F)F)c3)[nH]c2cc1Nc1nc(-c2ccncc2)cs1 [Compound 033, [6-Methyl-2-(3-trifluoromethyl-phenyl)-3H-benzoimidazol-5-yl]-(4-pyridin-4-yl-thiazol-2-yl)-amine]	≤ 1000 nM
Cc1cc2nc(-c3cccc(CN4CCOCC4)c3)[nH]c2cc1Nc1nccc(-c2cccnc2)n1 [Compound 018, [6-Methyl-2-(3-morpholin-4-ylmethyl-phenyl)-3H-benzoimidazol-5-yl]-(4-pyridin-3-yl-pyrimidin-2-yl)-amine]	1000 to 10000 nM
Cc1cc2nc(-c3cncn3C)[nH]c2cc1Nc1nc(-c2cccnc2)cs1 [Compound 077, [6-Methyl-2-(3-methyl-3H-imidazol-4-yl)-3H-benzoimidazol-5-yl]-(4-pyridin-3-yl-thiazol-2-yl)-amine]	1000 to 10000 nM
Cc1cc2nc(-c3cccc(OCCN(C)C)c3)[nH]c2cc1Nc1nccc(-c2cccnc2)n1 [Compound 016, {2-[3-(2-Dimethylamino-ethoxy)-phenyl]-6-methyl-3H-benzoimidazo1-5-yl}-(4-pyridin-3-yl-pyrimidin-2-yl)-amine]	1000 to 10000 nM
Cc1cc2nc(-c3ccc(C)c(C(F)(F)F)c3)[nH]c2cc1Nc1nccc(-c2cccnc2)n1 [Compound 041, [6-Methyl-2-(4-methyl-3-trifluoromethyl-phenyl)-3H-benzoimidazol-5-yl]-(4-pyridin-3-yl-pyrimidin-2-yl)-amine]	≤ 1000 nM
Cc1ccc(-c2nc3cc(C)c(Nc4nc(-c5cccnc5)cs4)cc3[nH]2)s1 [Compound 078, [6-Methyl-2-(5-methyl-thiophen-2-yl)-3H-benzoimidazol-5-yl]-(4-pyridin-3-yl-thiazol-2-yl)-amine]	≤ 1000 nM
Cc1cc2c(cc1Nc1nc(-c3ccncc3)cs1)nc(-c1cccc(C(F)(F)F)c1)n2C [Compound 082, [1,6-Dimethyl-2-(3-trifluoromethyl-phenyl)-1H-benzoimidazol-5-yl]-(4-pyridin-4-yl-thiazol-2-yl)-amine]	≤ 1000 nM

Now from value to compound:

IC50	SMILES
1000 to 10000 nM	Cc1cc2nc(-c3cccc(OC(F)(F)F)c3)n(C)c2cc1Nc1nc(-c2cccnc2)cs1 [Compound 117, [3,6-Dimethyl-2-(3-trifluoromethoxy-phenyl)-3H-benzoimidazol-5-yl]-(4-pyridin-3-yl-thiazol-2-yl)-amine]
≤ 1000 nM	COc1cccc(-c2nc3cc(Nc4nc(-c5cccnc5)cs4)c(C)cc3[nH]2)c1 [Compound 126, [2-(3-Methoxy-phenyl)-6-methyl-1H-benzoimidazol-5-yl]-(4-pyridin-3-yl-thiazol-2-yl)-amine]
1000 to 10000 nM	Cn1c(-c2cccc(C(F)F)c2)nc2cc(Nc3nc(-c4cccnc4)cs3)ccc21 [Compound 090, [2-(3-Difluoromethyl-phenyl)-1-methyl-1H-benzoimidazol-5-yl]-(4-pyridin-3-yl-thiazol-2-yl)-amine]
1000 to 10000 nM	CCS(=O)(=O)Nc1cccc(-c2nc3cc(Nc4nc(-c5ccncc5)cs4)c(C)cc3n2C)c1 [Compound 134, Ethanesulfonic acid {3-[1,6-dimethyl-5-(4-pyridin-4-yl-thiazol-2-ylamino)-1H-benzoimidazol-2-yl]-phenyl}-amide]
≤ 1000 nM	Cc1cc2c(cc1Nc1nc(-c3cccnc3)cs1)nc(-c1cc(F)cc(C(F)(F)F)c1)n2C [Compound 148, [2-(3-Fluoro-5-trifluoromethyl-phenyl)-1,6-dimethyl-1H-benzoimidazol-5-yl]-(4-pyridin-3-yl-thiazol-2-yl)-amine]
≤ 1000 nM	FC(F)(F)Oc1cccc(-c2nc3cc(Nc4nc(-c5cccnc5)cs4)ccc3[nH]2)c1 [Compound 089, (4-Pyridin-3-yl-thiazol-2-yl)-[2-(3-trifluoromethoxy-phenyl)-1H-benzoimidazol-5-yl]-amine]
≤ 1000 nM	Cc1cc2[nH]c(-c3cccc(C(C)(C)C)c3)nc2cc1Nc1nc(-c2ccc(C#N)cc2)cs1 [Compound 154, 4-{2-[2-(3-tert-Butyl-phenyl)-6-methyl-1H-benzoimidazol-5-ylamino]-thiazol-4-yl}-benzonitrile]
≤ 1000 nM	Cc1cc2c(cc1Nc1nc(-c3ccc(C#N)cc3)cs1)nc(-c1cccc(C(F)F)c1)n2C [Compound 111, 4-{2-[2-(3-Difluoromethyl-phenyl)-1,6-dimethyl-1H-benzoimidazol-5-ylamino]-thiazol-4-yl}-benzonitrile]
≤ 1000 nM	Cc1cc2c(cc1Nc1nc(-c3ccc(C#N)cc3)cs1)nc(-c1cccc(C(C)C)c1)n2C [Compound 142, 4-{2-[2-(3-Isopropyl-phenyl)-1,6-dimethyl-1H-benzoimidazol-5-ylamino]-thiazol-4-yl}-benzonitrile]
≤ 1000 nM	Cc1cc2[nH]c(-c3ccc(C(F)F)cc3)nc2cc1Nc1nc(-c2cccnc2)cs1 [Compound 097, [2-(4-Difluoromethyl-phenyl)-6-methyl-1H-benzoimidazol-5-yl]-(4-pyridin-3-yl-thiazol-2-yl)-amine]
1000 to 10000 nM	FC(F)(F)c1cccc(-c2nc3cc(Nc4nc(-c5cccnc5)cs4)ccc3[nH]2)c1 [Compound 088, (4-Pyridin-3-yl-thiazol-2-yl)-[2-(3-trifluoromethyl-phenyl)-1H-benzoimidazol-5-yl]-amine]
≤ 1000 nM	CCn1c(-c2cccc(C(F)(F)F)c2)nc2cc(Nc3nc(-c4cccnc4)cs3)c(C)cc21 [Compound 110, [1-Ethyl-6-methyl-2-(3-trifluoromethyl-phenyl)-1H-benzoimidazol-5-yl]-(4-pyridin-3-yl-thiazol-2-yl)-amine]
≤ 1000 nM	Cc1cc2c(cc1Nc1nc(-c3ccc(C#N)cc3)cs1)nc(-c1cccc(C(F)(F)F)c1)n2C [Compound 114, 4-{2-[1,6-Dimethyl-2-(3-trifluoromethyl-phenyl)-1H-benzoimidazol-5-ylamino]-thiazol-4-yl}-benzonitrile]
≤ 1000 nM	Cc1cc2c(cc1Nc1nc(-c3cccnc3)cs1)nc(-c1cccc(C(C)C)c1)n2C [Compound 140, [2-(3-Isopropyl-phenyl)-1,6-dimethyl-1H-benzoimidazol-5-yl]-(4-pyridin-3-yl-thiazol-2-yl)-amine]
≤ 1000 nM	Cc1cc2c(cc1Nc1nc(-c3ccncc3)cs1)nc(-c1cccc(C(F)F)c1)n2C(C)C [Compound 100, [2-(3-Difluoromethyl-phenyl)-1-isopropyl-6-methyl-1H-benzoimidazol-5-yl]-(4-pyridin-4-yl-thiazol-2-yl)-amine]
